Data reported in patent publication US9771366B2, “Substituted tetrahydropyrido[3′,2′:4,5]pyrrolo[1,2-a]pyrazine-2-carboxamides as RSK inhibitors” (Phoenix Molecular Designs, priority 2016, dated 2017).
Entries after “also recorded” stand apart in the source; their conditions may differ. Structures can show the parent of a compound that is named as a salt. Where two headings read alike, the source gives them in different places.

How the values were obtained:
[1] = Solubility assessment at 20 mg/ml; type: physicochemical; conditions: for 20 mg/ml Solubility: dissolved in DMSO; for pH: 20 mg/ml solution
Experimental: Solubility is an important property for therapeutic drug candidates. Poor solubility can lead to low bioavailability resulting in suboptimal drug delivery. It can also prevent the evaluation of test agents in animals because the concentration(s) needed to achieve the desired effect cannot be achieved to poor solubility. For solubility assessments, small molecules targeting RSK were compared. For these assessments, 100 mM solutions of the compounds dissolved in DMSO were diluted in DMEM growth media (Life Technologies) supplemented with fetal bovine serum (FBS, Life Technologies) and 100 units/ml penicillin and 100 units/ml streptomycin (Life Technologies) to make 20 mg/ml solutions. Once diluted, the solutions were vortexed and examined for the formation of precipitates. […] For Compound 26, a 100 mM solution of the compound dissolved in DMSO was diluted in phosphate buffered saline (Life Technologies) to make a 20 mg/ml solution. The stock of […] was chosen because this is the upper end of what would be required to dose mice for a range of studies including MTD, PK, PD and efficacy. The pH of this solution was determined to be 2, as previously described. […] At high concentrations some RSK inhibitors were highly soluble while others were not. Compound 0 is (R)—N-(1-benzyl-1H-pyrazol-4-yl)-9-methyl-6-oxo-6,7,8,9-tetrahydropyrido[3′,2′:4,5]pyrrolo[1,2-a]pyrazine-2-carboxamide. Compound 0 was not soluble, whereas Compounds 18, 20, 21, 25 and 26 were soluble under the same conditions (Table 5).

CD34+ cells = experiment: Colony forming unit hematopoietic stem cell assay; type: cell-based, human; conditions: ratio of IC50 values against CD34+ cells and MDA-MB-231 cells
Experimental: The hematopoietic colony forming cell assay was conducted based on a protocol outlined by StemCell Technologies. […] Following the addition of CD34^+ cells isolated from human cord blood or peripheral blood (StemCell Technologies) at a final concentration of 5×10^2 cells per dish, the tubes were vortexed and allowed to stand for 5 minutes at room temperature. Next, the MethoCult mixtures were dispensed into 35 mm dishes (Corning Incorporated) through blunt end needles (StemCell Technologies) and 5 ml syringes (BD Biosciences) at a volume of 1.1 ml per dish. The medium was evenly distributed across the surface of each dish by gentle tilting and rotation. The dishes were then placed in a 100 mm culture dish (Grenier Bio-One) containing additional 35 mm dishes with sterile water to maintain humidity. The culture dish was then placed at 37° C. in a humidified incubator containing 5% CO2 for 13 days. The number of myeloid and erythroid derived colonies in both the treated and control dishes were counted and compared.

RSK2 = RSK2 (Homo sapiens (Human), UniProt P51812); experiment: Radioisotope kinase assay (SignalChem), RSK2; type: biochemical
Experimental: The assay conditions for the RSK2 kinase target were optimized to yield acceptable enzymatic activity. In addition, the assays were optimized to give high signal-to-noise ratio.
Radioisotope assays (SignalChem) were performed for the evaluation of the kinase target profiling and all assays were performed in a designated radioactive working area. The kinase targets were RSK1, RSK2, RSK3, RSK4 and MK2.
The assay was initiated by the addition of ^33P-ATP and the reaction mixture incubated at 30° C. for 15 minutes. After the incubation period, the assay was terminated by spotting 10 μL of the reaction mixture onto Multiscreen phosphocellulose P81 plate. The Multiscreen phosphocellulose P81 plate was washed 3 times for approximately 15 minutes each in a 1% phosphoric acid solution. The radioactivity on the P81 plate was counted in the presence of scintillation fluid in a Trilux scintillation counter.
Blank controls were set up for each target kinase which included all the assay components except the addition of the appropriate substrate (which was replaced with equal volume of assay dilution buffer). The corrected activity for each target kinase was determined by removing the blank control value.

CIITA mRNA = experiment: Immuno-oncology: CIITA mRNA expression; type: cell-based, Human; conditions: MDA-MB-231 and JIMT-1 cells; Compound 16 2 or 4 uM, Compound 18 1, 2, or 4 uM
Text: (§1) A key feature of cancer is low immunogenicity. This can occur by several mechanisms that allow the cells to escape immune recognition. […] HLA-DRA is a member of MHC-II genes and CIITA is the master regulator of MHC II transcription. Thus it was surprising that CIITA, which would be expected to regulate MHC II gene expression, was not altered by RSK inhibition. […] HLA-DRA is important for immune recognition while PD-L1 is involved in immune checkpoints.

[2] = system: phosphorylated Y-box binding protein-1 (YB-1) at serine 102 (P—YB-1S102); experiment: Immunoblotting of phosphorylated YB-1 in MDA-MB-231 cells; conditions: MDA-MB-231, 0.01-1 uM, 96 hrs
Experimental: Following desired experimental conditions, breast cancer cell lines grown and treated in 6 well plates or 100 mm culture dishes (Grenier Bio-One) were placed on ice and the supernatant from each well was removed and the cells were washed in cold PBS. Following removal of PBS, cells were exposed to radioimmunoprecipitation assay (RIPA) buffer (50 mM Tris-HCl (pH 8), 150 mM NaCl, 1% NP-40, 0.5% sodium deoxycholate, 0.1% SDS; Fisher Scientific) supplemented with 1% phosphatase inhibitor (Fisher Scientific) and 1% protease inhibitor (Fisher Scientific) for 10 minutes. Samples were transferred to eppendorf tubes, vortexed and then centrifuged at 14 000 rpm for 10 minutes. Supernatants were collected as whole cell lysates. For mouse tumour tissues, each sample was place in a 35 mm culture dish with complete RIPA lysis buffer. The samples were diced in the buffer on ice with a sterile scalpel (VWR) and the buffer and tissue were transferred to an eppendorf tube. The samples were left on ice for 10 minutes with periodic vortexing every 2 to 3 minutes. The samples were then transferred to a Qiashredder (Qiagen) and centrifuged at 14 000 rpm for 2 minutes. The flow through was transferred to a new eppendorf tube and the samples were centrifuged again at 14 000 rpm for 5 minutes. Supernatants were collected as whole cell lysates.
For the majority of experiments in this study, 30 μg of protein per well was loaded. Samples were then resolved on SDS-PAGE (polyacrylamide gel electrophoresis) using various percentages of acrylamide gels (8%-12%), depending on the proteins of interest. […] For certain immunoblots, bands of proteins of interest were scanned and band intensity ratios were determined by densitometric analysis (ImageJ). […] To assess whether cells are actively undergoing cell death, the activity of poly ADP ribose polymerase (PARP) (1:1000 CST) was also measured using the immunoblotting method.

[3] = system: CD274, the gene that encodes PD-L1; experiment: Immuno-oncology: CD274 expression in MDA-MB-231 cells; type: cell-based, Human; conditions: Compound 16 2 or 4 uM, Compound 18 1, 2 or 4 uM
Text: as §1

HLA-DRA mRNA = experiment: Immuno-oncology: HLA-DRA mRNA expression; type: cell-based, Human; conditions: MDA-MB-231 and JIMT-1 cells; Compound 16 2 or 4 uM, Compound 18 1, 2, or 4 uM
Text: as §1

[4] = Plasma and tumor levels by LC/MS in MDA-MB-231 xenograft mice; type: in vivo; conditions: nu/nu, mouse, oral, 100 mg/kg; for concentration at 30 min: 30 minutes after last dose

Chain of RSK2 (P51812 whole entry): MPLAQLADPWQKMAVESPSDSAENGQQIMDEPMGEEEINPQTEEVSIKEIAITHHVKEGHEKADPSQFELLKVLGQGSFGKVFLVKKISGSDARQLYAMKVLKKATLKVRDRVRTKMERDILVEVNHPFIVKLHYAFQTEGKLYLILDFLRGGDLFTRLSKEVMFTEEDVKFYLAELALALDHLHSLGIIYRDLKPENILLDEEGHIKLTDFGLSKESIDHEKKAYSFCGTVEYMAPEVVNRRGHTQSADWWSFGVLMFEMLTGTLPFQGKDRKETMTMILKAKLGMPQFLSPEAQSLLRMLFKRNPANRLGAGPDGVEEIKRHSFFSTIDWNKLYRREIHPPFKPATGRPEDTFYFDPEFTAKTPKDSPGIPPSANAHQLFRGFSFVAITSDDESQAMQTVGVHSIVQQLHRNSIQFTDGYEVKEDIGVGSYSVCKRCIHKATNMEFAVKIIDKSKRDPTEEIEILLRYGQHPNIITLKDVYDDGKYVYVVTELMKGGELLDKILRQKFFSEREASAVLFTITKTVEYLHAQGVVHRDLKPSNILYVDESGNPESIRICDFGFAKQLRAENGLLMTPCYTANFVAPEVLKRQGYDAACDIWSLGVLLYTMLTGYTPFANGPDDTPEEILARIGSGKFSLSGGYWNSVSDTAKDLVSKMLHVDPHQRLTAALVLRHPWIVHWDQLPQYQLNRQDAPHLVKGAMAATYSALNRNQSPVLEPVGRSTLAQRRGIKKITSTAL

Structure (SMILES): C[C@@H]1CNC(=O)c2cc3ccc(C(=O)Nc4cnn(Cc5ccccc5)c4)nc3n21 [Compound 0, (R)—N-(1-benzyl-1H-pyrazol-4-yl)-9-methyl-6-oxo-6,7,8,9-tetrahydropyrido[3′,2′:4,5]pyrrolo[1,2-a]pyrazine-2-carboxamide, reference compound]
- 20 mg/ml Solubility ([1]; diluted in DMEM): not soluble; also recorded: Precipitate
- solubility for systemic delivery / pharmacodynamics evaluation ([1]; mice): poor or nonexistent solubility
- Therapeutic Window (CD34+ cells): 50X

Structure (SMILES): C[C@@H]1CNC(=O)c2cc3ccc(NC(=O)c4cnn(Cc5ccccc5)c4)cc3n21 [Compound 11, (R)-1-benzyl-N-(4-methyl-1-oxo-1,2,3,4-tetrahydropyrazino[1,2-a]indol-7-yl)-1H-pyrazole-4-carboxamide]
- IC50 (RSK2): 1380 nM

Structure (SMILES): C[C@@H]1CNC(=O)c2cc3ccc(C(=O)Nc4cnn(Cc5cccc(N)c5)c4)nc3n21 [Compound 16, (R)—N-(1-(3-aminobenzyl)-1H-pyrazol-4-yl)-9-methyl-6-oxo-6,7,8,9-tetrahydropyrido[3′,2′:4,5]pyrrolo[1,2-a]pyrazine-2-carboxamide]
- IC50 (RSK2): 23 nM
- mRNA expression of CIITA (CIITA mRNA): little effect
- loss of P—YB-1 [2]: dose dependent loss
- Therapeutic Window (CD34+ cells): >100X
- levels of CD274 [3]: reduced
- levels of HLA-DRA mRNA (HLA-DRA mRNA): elevated

Structure (SMILES): C[C@@H]1CNC(=O)c2cc3ccc(C(=O)Nc4cnn(Cc5ccccc5N)c4)nc3n21 [Compound 17, (R)—N-(1-(2-aminobenzyl)-1H-pyrazol-4-yl)-9-methyl-6-oxo-6,7,8,9-tetrahydropyrido[3′,2′:4,5]pyrrolo[1,2-a]pyrazine-2-carboxamide]
- IC50 (RSK2): 14 nM

Structure (SMILES): C[C@@H]1CNC(=O)c2cc3ccc(C(=O)Nc4cnn(CC5CCN(C)CC5)c4)nc3n21 [Compound 20, (R)-9-methyl-N-(1-((1-methylpiperidin-4-yl)methyl)-1H-pyrazol-4-yl)-6-oxo-6,7,8,9-tetrahydropyrido[3′,2′:4,5]pyrrolo[1,2-a]pyrazine-2-carboxamide]
- IC50 (RSK2): 124 nM
- pH ([1]; DMSO diluted in DMEM): 8
- 20 mg/ml Solubility ([1]; diluted in DMEM): Soluble

Structure (SMILES): C[C@@H]1CNC(=O)c2cc3ccc(C(=O)Nc4ccccc4C(N)=O)nc3n21 [Compound 21, (R)—N-(2-carbamoylphenyl)-9-methyl-6-oxo-6,7,8,9-tetrahydropyrido[3′,2′:4,5]pyrrolo[1,2-a]pyrazine-2-carboxamide]
- pH ([1]; DMSO diluted in DMEM): 9
- 20 mg/ml Solubility ([1]; diluted in DMEM): Soluble

Structure (SMILES): C[C@@H]1CNC(=O)c2cc3ccc(C(=O)Nc4cnn(Cc5ccc(C(F)(F)F)cc5)c4)nc3n21 [Compound 22, (R)-9-methyl-6-oxo-N-(1-(4-(trifluoromethyl)benzyl)-1H-pyrazol-4-yl)-6,7,8,9-tetrahydropyrido[3′,2′:4,5]pyrrolo[1,2-a]pyrazine-2-carboxamide]
- 20 mg/ml Solubility ([1]; diluted in DMEM): Precipitate

Structure (SMILES): C[C@@H]1CNC(=O)c2c(Cl)c3ccc(C(=O)Nc4cnn(Cc5ccccc5)c4)nc3n21 [Compound 24, (R)—N-(1-benzyl-1H-pyrazol-4-yl)-5-chloro-9-methyl-6-oxo-6,7,8,9-tetrahydropyrido[3′,2′:4,5]pyrrolo[1,2-a]pyrazine-2-carboxamide]
- 20 mg/ml Solubility ([1]; diluted in DMEM): Precipitate

Structure (SMILES): C[C@@H]1CNC(=O)c2cc3ccc(C(=O)Nc4cnn(Cc5ccc(N)cc5)c4)nc3n21 [Compound 25, (R)—N-(1-(4-aminobenzyl)-1H-pyrazol-4-yl)-9-methyl-6-oxo-6,7,8,9-tetrahydropyrido[3′,2′:4,5]pyrrolo[1,2-a]pyrazine-2-carboxamide hydrochloride salt]
- IC50 (RSK2): 18 nM
- concentration at 30 min ([4]; plasma, 100 mg/kg BID PO three days, read-out: plasma level, average): 35.1 µM
- concentration at 30 min ([4]; tumor, 100 mg/kg BID PO 21 days, read-out: average concentration in the tumors): 7.7 µM
- concentration at 30 min ([4]; tumor, 100 mg/kg BID PO three days, read-out: Tumor level, average): 7.1 µM
- Kp at 30 min ([4]; tumor/plasma, three days of treatment, read-out: tumor uptake (ratio between tumor and plasma)): 0.2
- pH ([1]; DMSO diluted in DMEM, hydrochloride salt): 2
- 20 mg/ml Solubility ([1]; diluted in DMEM, hydrochloride salt): Soluble
- Therapeutic Window (CD34+ cells; hydrochloride salt): >100X

Structure (SMILES): C[C@@H]1CNC(=O)c2cc3ccc(C(=O)Nc4cnn(Cc5ccc(CN)cc5)c4)nc3n21 [Compound 26, (R)—N-(1-(4-(aminomethyl)benzyl)-1H-pyrazol-4-yl)-9-methyl-6-oxo-6,7,8,9-tetrahydropyrido[3′,2′:4,5]pyrrolo[1,2-a]pyrazine-2-carboxamide hydrochloride salt]
- pH at which the compound remained in solution ([1]; 20 mg/ml in PBS after 4M NaOH was added): 9
- pH ([1]; DMSO diluted in PBS, hydrochloride salt): 2-9
- 20 mg/ml Solubility ([1]; diluted in PBS, hydrochloride salt): Soluble

Structure (SMILES): CC(=O)O[C@H]1C(=O)[C@@]2(C)[C@H]([C@H](OC(=O)c3ccccc3)[C@]3(O)C[C@H](OC(=O)[C@H](O)[C@@H](NC(=O)c4ccccc4)c4ccccc4)C(C)=C1C3(C)C)[C@]1(OC(C)=O)CO[C@@H]1C[C@@H]2O [Taxol, paclitaxel, reference compound]
- Therapeutic Window (CD34+ cells): 6.9X
